The values that follow come from ChEMBL document CHEMBL1130048, “Biological and conformational examination of stereochemical modifications using the template melanotropin peptide, Ac-Nle-c[Asp-His-Phe-Arg-Trp-Ala-Lys]-NH2, on human melanocortin receptors” (J Med Chem, 1997).

Where only a bound is given, the exact number is not on record here.

Assay [1] addresses Melanocortin receptor 5 (Homo sapiens, UniProt P33032). The assay is described as follows: Inhibitory concentration against human Melanocortin 5 receptor (hMC5R).
In assay [2] the target is T1, Melanocyte-stimulating hormone receptor (Homo sapiens, UniProt Q01726). The assay is described as follows: Effective concentration for intracellular cAMP accumulation in L-cells expressing Melanocortin 1 receptor. The assay is classed as functional, cell-based.
T1 sequence (Q01726 whole entry): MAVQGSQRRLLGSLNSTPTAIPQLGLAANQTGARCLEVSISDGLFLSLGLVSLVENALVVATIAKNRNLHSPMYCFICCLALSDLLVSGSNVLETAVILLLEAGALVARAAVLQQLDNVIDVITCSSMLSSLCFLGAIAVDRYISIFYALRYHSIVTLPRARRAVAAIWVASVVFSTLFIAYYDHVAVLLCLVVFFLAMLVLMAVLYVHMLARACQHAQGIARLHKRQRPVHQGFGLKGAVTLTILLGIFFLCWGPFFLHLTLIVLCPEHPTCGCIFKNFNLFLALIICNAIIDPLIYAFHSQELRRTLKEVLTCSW
For assay [3], the target named is T2, Melanocortin receptor 4 (Homo sapiens, UniProt P32245). The assay is described as follows: Effective concentration for intracellular cAMP accumulation in L-cells expressing Melanocortin 4 receptor. It is filed as functional, cell-based. A general note: cAMP levels reflect the balance of adenylyl cyclase and phosphodiesterase activity.
T2 sequence (P32245 whole entry): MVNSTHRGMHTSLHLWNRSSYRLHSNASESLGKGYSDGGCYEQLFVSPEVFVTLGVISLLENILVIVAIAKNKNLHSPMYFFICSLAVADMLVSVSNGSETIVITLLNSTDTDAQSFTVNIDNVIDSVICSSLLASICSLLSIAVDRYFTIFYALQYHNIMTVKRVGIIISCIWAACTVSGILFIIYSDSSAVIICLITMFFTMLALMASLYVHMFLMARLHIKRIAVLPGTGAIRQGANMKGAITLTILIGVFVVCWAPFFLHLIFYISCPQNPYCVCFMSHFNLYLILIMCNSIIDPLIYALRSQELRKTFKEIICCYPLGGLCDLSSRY
For assay [4], the target named is T3, Melanocortin receptor 3 (Homo sapiens, UniProt P41968). The assay is described as follows: Inhibitory concentration against human Melanocortin 3 receptor (hMC3R).
T3 sequence (P41968 whole entry): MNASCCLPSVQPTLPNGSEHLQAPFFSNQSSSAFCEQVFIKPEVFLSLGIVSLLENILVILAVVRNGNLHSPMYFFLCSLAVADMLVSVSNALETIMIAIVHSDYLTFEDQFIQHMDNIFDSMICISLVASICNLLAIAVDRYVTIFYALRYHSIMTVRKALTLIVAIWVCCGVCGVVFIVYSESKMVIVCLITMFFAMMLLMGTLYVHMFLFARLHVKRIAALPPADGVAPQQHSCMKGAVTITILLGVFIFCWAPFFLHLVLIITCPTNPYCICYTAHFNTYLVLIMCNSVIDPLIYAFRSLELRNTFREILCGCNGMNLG
For assay [5], the target named is T1, Melanocyte-stimulating hormone receptor. The assay is described as follows: Inhibitory concentration against human Melanocortin 1 receptor (hMC1R).
The target of assay [6] is T2, Melanocortin receptor 4. The assay is described as follows: Inhibitory concentration against human Melanocortin 4 receptor (hMC4R).
Assay [7] concerns the target T3, Melanocortin receptor 3. The assay is described as follows: Effective concentration that was able to generate 50% maximal intracellular cAMP in L-cells transfected with Melanocortin 3 receptor. The assay is classed as functional, cell-based.

Chain of Melanocortin receptor 5 (P33032 whole entry): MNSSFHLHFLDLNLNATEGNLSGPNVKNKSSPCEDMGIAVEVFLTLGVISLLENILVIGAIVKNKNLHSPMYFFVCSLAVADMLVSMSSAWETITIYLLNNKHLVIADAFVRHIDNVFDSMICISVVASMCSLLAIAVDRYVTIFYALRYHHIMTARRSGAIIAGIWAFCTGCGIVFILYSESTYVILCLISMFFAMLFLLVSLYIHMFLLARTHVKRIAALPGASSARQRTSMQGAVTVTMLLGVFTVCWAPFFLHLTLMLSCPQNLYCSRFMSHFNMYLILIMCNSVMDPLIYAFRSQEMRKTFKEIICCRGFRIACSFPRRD

For orientation: IC50 means the point on the concentration scale where inhibition reaches its midpoint. Lower therefore signals greater potency. Usually EC50 stands for the concentration needed to bring the measured effect to its halfway point. A low value points to an effect from little substance. Regarding `CC(=O)N[C@@H]1CC(=O)NCCCC[C@H](C(N)=O)NC(=O)[C@@H](C)NC(=O)[C@H](Cc2c[nH]c3ccccc23)NC(=O)[C@@H](CCCNC(=N)N)NC(=O)[C@H](Cc2ccccc2)NC(=O)[C@@H](Cc2cnc[nH]2)NC1=O`, the IC50 was over 1000 nM in assay [1], 102 nM in assay [4], 1.94 nM in assay [5] and 2.03 nM in assay [6]. Also, the results for the EC50 in assay [2], in assay [3] and in assay [7] were 13.4 nM, 2.92 nM and 88.5 nM, respectively.
Compound `CCCC[C@H](NC(C)=O)C(=O)N[C@@H]1CC(=O)NCCCC[C@@H](C(N)=O)NC(=O)[C@H](C)NC(=O)[C@@H](Cc2c[nH]c3ccccc23)NC(=O)[C@H](CCCNC(=N)N)NC(=O)[C@H](Cc2ccccc2)NC(=O)[C@H](Cc2cnc[nH]2)NC1=O` returned an EC50 in assay [2] of 34.2 nM. The half-inhibitory concentration (IC50) in assay [5] was 264 nM.
For `CCCC[C@H](NC(C)=O)C(=O)N[C@H]1CC(=O)NCCCC[C@@H](C(N)=O)NC(=O)[C@H](C)NC(=O)C(Cc2c[nH]c3ccccc23)NC(=O)[C@H](CCCN=C(N)N)NC(=O)[C@@H](Cc2ccccc2)NC(=O)[C@H](Cc2c[nH]cn2)NC1=O` (single isomer, unassigned) the same measures were 0.098 nM and 0.35 nM.
As to `CCCC[C@H](NC(C)=O)C(=O)N[C@H]1CC(=O)NCCCC[C@@H](C(N)=O)NC(=O)[C@H](C)NC(=O)C(Cc2c[nH]c3ccccc23)NC(=O)[C@H](CCCN=C(N)N)NC(=O)C(Cc2ccccc2)NC(=O)[C@H](Cc2c[nH]cn2)NC1=O` (single isomer, unassigned), in assay [2], the concentration giving a half-maximal response (EC50) stood at 2.61 nM. For the same compound, in assay [5], the IC50 was 22.4 nM.
For `CCCC[C@H](NC(C)=O)C(=O)N[C@H]1CC(=O)NCCCC[C@@H](C(N)=O)NC(=O)[C@H](C)NC(=O)C(Cc2c[nH]c3ccccc23)NC(=O)[C@H](CCCN=C(N)N)NC(=O)[C@H](Cc2ccccc2)NC(=O)[C@H](Cc2c[nH]cn2)NC1=O` (single isomer, unassigned), the midpoint of the response in assay [2], the EC50, lay at 0.3 nM. The compound further showed a half-maximal inhibitory concentration (IC50) in assay [5] of 0.91 nM.
